Experimental data: publication PMC6749294, “Comparison of the Utility of RP-TLC Technique and Different Computational Methods to Assess the Lipophilicity of Selected Antiparasitic, Antihypertensive, and Anti-inflammatory Drugs” (Molecules, 2019)
Read-outs that look alike come from different tables or passages of the source.

What was measured:
[1] = RP-TLC lipophilicity on RP-18F254 plates (Soczewiński-Wachtmeister's and Ościk's equations); type: physicochemical; conditions: for RMWO(m) / RMWO(a): Ościk's equation; for RMWO(m) / RMWS(m) / φ0(m): methanol-water mobile phase; for RMWO(m) / RMWS(a) / RMWS(m) / RMWO(a): silica gel RP-18F254; for RMWS(a) / RMWS(m): Soczewiński-Wachtmeister's equation; for RMWS(a) / φ0(a) / RMWO(a): acetone-water mobile phase; for φ0(a) / φ0(m): φ0 = RMWS/S (Equation 6)
Experimental: The chromatographic analysis was carried on RP-18F254 plates (Art.1.05559, E. Merck, Darmstadt, Germany). The solutions of the investigated compounds were spotted separately onto chromatographic plates using precise micropipettes in a quantity of 5 µL each.
The chromatograms were developed using the mixtures of methanol-water and acetone-water in different volume compositions, as follows:
For antiparasitic drugs: • - the content of methanol was gradually varied by 10% (v/v) from 20–100 (%, v/v), • - the content of acetone was gradually varied by 10% (v/v) from 10–100 (%, v/v).
In the case of antihypertensive drugs, the content of methanol and acetone was gradually varied by 5% (v/v) from 60–100 (%, v/v).
For non-steroidal anti-inflammatory drugs: • - the content of methanol was gradually varied by 5% (v/v) from 60–100 (%, v/v), • - the content of acetone was gradually varied by10% (v/v) from 20–100 (%, v/v).
Next, the chamber was saturated with solvent vapor for 20 min. The chromatograms were developed at room temperature, e.g., 22 ± 1 °C. The development distance was 75 mm. The plates were dried at room temperature, e.g., 22 ± 1 °C. Each chromatogram was done in triplicate.
Densitometric scanning was done using a TLC Scanner 3 with WinCATS 1.4.2 software manufactured by Camag (Muttenz, Switzerland) in the reflectance/absorbance mode.
Densitometric scanning was performed at a respective absorption maximum for the analyzed drugs. The slit dimensions were 10.00 × 0.40 mm, Macro; the optimized optical system was light; the scanning speed was 20 mm/s; the data resolution was 100 μm/step; the measurement type was remission; the measurement mode was absorption; and the optical filter was second order. Each track was scanned three times, and a baseline correction (lowest slope) was used.
In order to determine the lipophilicity parameter based on Soczewiński-Wachtmeister′s procedure, the RF values obtained under the applied chromatographic conditions were converted into RM values according to the expression:(4) RM=log1/RF−1 The linear relationship between RM and the volume content of methanol and acetone in the mobile phase (φ) permits an extrapolation of the calculated RM values to the zero concentration of methanol and acetone in accordance with Soczewiński-Wachtmeister′s Equation (5). […] (5) RM=RMWS−Sφ where: RM is the RM value of the studied compound, RMWS is the RM value extrapolated to zero concentration of methanol and acetone (organic modifier) in the used mobile phase, i.e., methanol-water and acetone-water, respectively, S is the slope of the regression plot (see Supplementary Materials), and φ is the volume fraction of methanol and acetone in the mobile phase. In addition to this, on the basis of the said plot, i.e., Soczewiński-Wachtmeister′s equation, another chromatographic descriptor (φ0) has been calculated according to the following formula (Equation (6)): (6) φ0 = RMWS/S where: RMWS is the chromatographic parameter obtained by using Soczewiński-Wachtmeister’s equation in accordance with Equation (5), and S is the regression slope.
The measurable lipophilicity value expressed as RMWO was determined according to Ościk’s equation [29, 30, 32]:(7) Gxorg=xorg1−xorg/RM−xorgRMorg−1−xorgRMWO=axorg+b where: RM, RMorg, and RMWO are the solute retention factors in the mixed mobile phase, pure organic solvent, and water, respectively; xorg is the molar fraction of the organic solvent in the mobile phase; a and b are constants in the linear correlation between G(xorg) and xorg in the used mobile phase.

[2] = Prediction of logPexp from φ0(a) with Equation (3); type: physicochemical; conditions: chromatography with acetone-water mobile phase; calculated from φ0(a) with Equation (3); read-out: predicted logPexp
Source text: The continuation of our lipophilicity study of fifteen biocompounds belonging to the three groups of drugs and the determination of another lipophilicity descriptor, namely φ0, in accordance with Equation (6), allowed us to obtain the two new lipophilicity parameters φ0(a) and φ0(m) for a proper used mobile phase, i.e., acetone-water (a) and methanol-water (m), respectively. What is important is that the calculation of this parameter was possible because a satisfactory linear relationship between both, i.e., the intercept and slope (RMWS and S), in each obtained Soczewiński-Wachtmeister’s equation was achieved (r > 0.98). In order to estimate the utility of these parameters for the prediction of the theoretical as well as experimental parameter of the lipophilicity of a large group of investigated compounds, a correlation matrix between all previously described (thus chromatographic) parameters, as well as the computed and experimental partition coefficient, was done. The results of the correlation analysis indicate that among all φ0 values the best is the one obtained for acetone-water, which is to say φ0(a). […]
This fact confirms the potential utility of the additionally calculated chromatographic parameter φ0(a) to determine the partition coefficient of all examined compounds. It can be very useful in the case of the lack of this value, like for example for the experimental logP of nilvadipine, lacidipine and carprofen. A test was performed on Equation (3) to determine the values of logPexp for the three abovementioned compounds. The results of the predicted logPexp were: 3.65 for nilvadipine, 3.96 for lacidipine and 3.54 for carprofen, respectively. It can be observed that the newly obtained logPexp values are in good agreement with the other previously described theoretical logP of these compounds. They are placed in the similar range of logP values.

[3] = design: method as in PMID 12972078; conditions: RP-HPLC, cited from earlier work; for log kwODS: ODS column μBondapak C18; for log kw IAM: immobilized artificial membrane (IAM.PC.MG) column
[4] = cited from earlier work; for Rm0: RP-18F254 plates, acetonitrile-water; for logP: calculated from regression curve Rm0 = f(logP)
[5] = design: method as in PMID 9809446; conditions: methanol-water, cited from earlier work
[6] = n-octanol-water, cited from earlier work
[7] = cited from earlier work
[8] = Experimental n-octanol-water partition coefficient (logPexp) from literature and databases; type: physicochemical; conditions: average of the differing literature logPexp values (± spread)
Source text: The next stage of this paper was a comparison of all obtained RMWS and RMWO parameters calculated using […] equations with theoretical and experimental logP values obtained in an n-octanol-water system.

[9] = cited from earlier work; remark: listed apart in the source
[10] = design: method as in doi:10.1016/S0021-9673(01)88013-4; conditions: RP-HPLC; cited from earlier work
[11] = RP-18WF254 plates, Soczewiński-Wachtmeister's equation

SMILES | RMWO(m) [1] | RMWS(a) [1] | RMWS(m) [1] | φ0(a) [1] | φ0(m) [1] | RMWO(a) [1] | logP [8] | also measured
CC(C(=O)O)c1ccc2c(c1)[nH]c1ccc(Cl)cc12 (stereo not shown) [Carprofen, carprofen] | 2.77 | 2.56 | 2.34 | 0.754 | 0.820 |  |  | chromatographic logP [2]: 3.54; log kwODS [3]: 3.85; log kw IAM [3]: 1.81
CC(C(=O)O)c1cccc(C(=O)c2ccccc2)c1 (stereo not shown) [Ketoprofen, ketoprofen] | 3.76 | 1.26 | 1.47 | 0.640 | 0.687 |  |  | Rm0 [4]: 1.8491; logP [4]: 2.66; log kwODS [3]: 2.83; log kw IAM [3]: 1.02; RMO ([5]; Nano-Sil CNF254 plates): 2.31; RMO [5, 11]: 1.74
CCCCC1C(=O)N(c2ccccc2)N(c2ccccc2)C1=O [Phenylbutazone, phenylbutazone] | 3.54 | 1.72 | 1.84 |  |  |  |  | RMO ([5]; Nano-Sil CNF254 plates): 1.50; RMO [5, 11]: 2.71
COc1ccc2c(c1)c(CC(=O)O)c(C)n2C(=O)c1ccc(Cl)cc1 [Indomethacin, indomethacin] | 4.08 | 2.57 | 2.19 | 0.747 | 0.790 |  |  | logPexp ([6]; ref 36): 4.27 [36]; logPexp ([6]; ref 42): 4.10 [42]; RMO ([5]; Nano-Sil CNF254 plates): 0.52; RMO [5, 11]: 2.62
CCOC(=O)C1=C(C)NC(C)=C(C(=O)OCC)C1c1ccccc1/C=C/C(=O)OC(C)(C)C [Lacidipine, lacidipine] | 6.89 | 4.51 | 5.01 | 0.793 | 0.937 | 6.63 |  | chromatographic logP [2]: 3.96
CC(C(=O)O)c1ccc(-c2ccccc2)c(F)c1 (stereo not shown) [Flurbiprofen, flurbiprofen] | 2.26 | 1.87 | 1.98 | 0.930 | 0.771 |  | 4 | logPexp ([6]; ref 36): 4.16 [36]; logPexp ([6]; ref 42): 3.84 [42]; Rm0 [4]: 2.5076; logP [4]: 3.82; log kwODS [3]: 2.91; log kw IAM [3]: 1.58
COC(=O)C1=C(C)NC(C)=C(C(=O)OC(C)C)C1c1cccc2nonc12 (stereo not shown) [Isradipine, isradipine] | 5.08 | 3.54 | 3.13 | 0.751 | 0.837 | 5.67 |  | logPexp ([6]; ref 6): 4.28 [6]
CCOC(=O)C1=C(C)NC(C)=C(C(=O)OC)C1c1cccc(Cl)c1Cl (stereo not shown) [Felodipine, felodipine] | 6.57 | 3.75 | 4.27 | 0.775 | 0.929 | 5.57 | 4.16 | logPexp ([6]; ref 6): 3.86 [6]; logPexp ([6]; ref 41): 4.46 [41]

Second part, led by results:

RMWO(m) [1] | RMWS(a) [1] | RMWS(m) [1] | φ0(a) [1] | φ0(m) [1] | RMWO(a) [1] | logP [8] | SMILES | also measured
1.21 | 0.65 | 0.91 | 0.398 | 0.564 | 0.94 | 0.1 | Cc1ncc([N+](=O)[O-])n1CCO [Metronidazole, metronidazole] | logPexp ([6]; ref 34): –0.22; logPexp ([6]; ref 35): –0.10; logPexp ([6]; ref 36): –0.02 [36]; logPexp ([6]; ref 37): 0.75 [37]; hydrophilic-hydrophobic properties ([7]; according to Hoffmann et al. and Jokipii et al.): lipophilic compound that penetrates well into most tissues; hydrophilic-hydrophobic properties ([7]; reported by Biagi): hydrophilic; hydrophilic-hydrophobic properties ([7]; reported by Másson et al.): very hydrophilic; RMW ([9]; RP-TLC, Soczewiński-Wachtmeister's equation): 0.08; RMW(paraffin) ([9]; stationary phase liquid paraffin): 0.60; RMW(squalene) ([9]; stationary phase squalene): 0.53; logk' [10]: –0.067
5.57 | 4.07 | 3.66 | 0.764 | 0.886 | 6.28 |  | COC(=O)C1=C(C#N)NC(C)=C(C(=O)OC(C)C)C1c1cccc([N+](=O)[O-])c1 (stereo not shown) [Nilvadipine, nilvadipine] | chromatographic logP [2]: 3.65
2.52 | 3.08 | 3.12 | 0.787 | 0.903 |  |  | COc1ccc2cc(CCC(C)=O)ccc2c1 [Nabumetone, nabumetone] | logPexp ([6]; ref 43): 3.08 [43]
3.74 | 2.61 | 2.49 | 0.789 | 0.865 |  |  | Cc1cccc(Nc2ccccc2C(=O)O)c1C [Mefenamic Acid, mefenamic acid] | logPexp ([6]; ref 39): 5.12 [39]
1.69 | 0.89 | 1.17 | 0.463 | 0.612 | 1.11 | 0.18 | CCS(=O)(=O)CCn1c([N+](=O)[O-])cnc1C [Tinidazole, tinidazole] | 
1.72 | 0.95 | 1.26 |  |  | 1.21 |  | Cc1ncc([N+](=O)[O-])n1CC(C)O (stereo not shown) [Secnidazole, secnidazole] | logPexp ([6]; ref 33): 0.22 [33]
1.92 | 1.22 | 1.46 | 0.565 | 0.676 | 1.42 | 0.41 | Cc1ncc([N+](=O)[O-])n1CC(O)CCl (stereo not shown) [Ornidazole, ornidazole] | 
